ChEMBL document CHEMBL4680201, “Design, synthesis, and pharmacological evaluation of 4- or 6-phenyl-pyrimidine derivatives as novel and selective Janus kinase 3 inhibitors” (Eur J Med Chem, 2020)
Active and inactive are the calls of the source. No cut-off for these calls is given here.

Legend:
[1] = target: Non-receptor tyrosine-protein kinase TYK2 (Homo sapiens, UniProt P29597); experiment: Inhibition of recombinant human N-terminal GST-tagged TYK2 cytoplasmic domain (833 to 1187 residues) expressed in baculovirus expression system using TK-substrate-biotin preincubated for 5 mins followed by substrate addition and measured after 30 mins by HTRF assay
[2] = target: T1, Tyrosine-protein kinase JAK3 (Mus musculus) (UniProt Q62137); experiment: Inhibition of JAK3 in anti-CD3/-CD28 coated mouse T cells assessed as reduction in IL15-induced STAT5 phosphorylation at 10 uM preincubated for 1 hr followed by […] and measured after 30 mins by Western blot analysis; conditions: T cell
T1 sequence (whole entry): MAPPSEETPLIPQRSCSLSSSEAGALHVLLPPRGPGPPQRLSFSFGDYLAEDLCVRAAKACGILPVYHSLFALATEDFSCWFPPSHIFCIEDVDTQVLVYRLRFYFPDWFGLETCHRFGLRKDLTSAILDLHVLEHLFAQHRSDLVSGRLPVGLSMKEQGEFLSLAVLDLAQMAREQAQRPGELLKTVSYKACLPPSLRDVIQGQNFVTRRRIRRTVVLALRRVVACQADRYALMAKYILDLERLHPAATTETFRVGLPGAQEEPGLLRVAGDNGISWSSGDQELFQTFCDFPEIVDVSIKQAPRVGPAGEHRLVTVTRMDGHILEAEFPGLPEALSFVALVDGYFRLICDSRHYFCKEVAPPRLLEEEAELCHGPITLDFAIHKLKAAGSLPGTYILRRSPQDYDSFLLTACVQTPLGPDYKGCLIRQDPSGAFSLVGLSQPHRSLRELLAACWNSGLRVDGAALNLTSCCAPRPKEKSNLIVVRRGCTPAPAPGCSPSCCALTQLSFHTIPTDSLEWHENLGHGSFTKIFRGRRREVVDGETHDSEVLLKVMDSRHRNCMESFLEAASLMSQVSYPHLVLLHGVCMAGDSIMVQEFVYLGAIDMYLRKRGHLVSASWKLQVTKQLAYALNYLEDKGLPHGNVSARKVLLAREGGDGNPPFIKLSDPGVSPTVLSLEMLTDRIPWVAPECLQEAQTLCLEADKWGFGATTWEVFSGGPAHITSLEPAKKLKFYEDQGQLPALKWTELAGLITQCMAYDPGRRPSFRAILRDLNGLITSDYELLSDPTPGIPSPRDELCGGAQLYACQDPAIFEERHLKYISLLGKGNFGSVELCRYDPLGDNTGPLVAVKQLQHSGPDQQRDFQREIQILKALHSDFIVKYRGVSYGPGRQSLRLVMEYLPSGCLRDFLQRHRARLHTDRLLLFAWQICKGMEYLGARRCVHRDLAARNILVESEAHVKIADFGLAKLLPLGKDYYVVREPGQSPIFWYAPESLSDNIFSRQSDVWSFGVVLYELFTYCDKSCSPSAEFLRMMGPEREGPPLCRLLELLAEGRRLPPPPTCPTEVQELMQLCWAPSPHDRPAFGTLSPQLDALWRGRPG

[3] = target: Tyrosine-protein kinase JAK1 (Homo sapiens, UniProt P23458); experiment: Inhibition of recombinant human GST-tagged JAK1 cytoplasmic domain (866 to 1154 residues) expressed in baculovirus expression system using TK-substrate-biotin preincubated for 5 mins followed by substrate addition and measured after 30 mins by HTRF assay
RAW264.7 = experiment: Cytotoxicity against mouse RAW264.7 cells assessed as reduction in cell viability at 10 uM measured after 72 hrs by MTS assay; type: cell-based; conditions: raw264.7, 72 h
[4] = Cytotoxicity against IL-4-treated mouse T cells assessed as reduction in cell viability at 10 uM measured after 72 hrs by MTS assay; type: cell-based
[5] = target: T1, Tyrosine-protein kinase JAK3 (Mus musculus); experiment: Inhibition of JAK3 in anti-CD3/-CD28 coated mouse T cells assessed as reduction in IL2-induced STAT5 phosphorylation at 10 uM preincubated for 1 hr followed by IL2 stimulation and measured after 30 mins by Western blot analysis; conditions: T cell
[6] = target: T2, Tyrosine-protein kinase JAK2 (Homo sapiens, UniProt O60674); type: ADME
[7] = target: T3, Tyrosine-protein kinase JAK3 (Homo sapiens, UniProt P52333)
T3 sequence (P52333 whole entry): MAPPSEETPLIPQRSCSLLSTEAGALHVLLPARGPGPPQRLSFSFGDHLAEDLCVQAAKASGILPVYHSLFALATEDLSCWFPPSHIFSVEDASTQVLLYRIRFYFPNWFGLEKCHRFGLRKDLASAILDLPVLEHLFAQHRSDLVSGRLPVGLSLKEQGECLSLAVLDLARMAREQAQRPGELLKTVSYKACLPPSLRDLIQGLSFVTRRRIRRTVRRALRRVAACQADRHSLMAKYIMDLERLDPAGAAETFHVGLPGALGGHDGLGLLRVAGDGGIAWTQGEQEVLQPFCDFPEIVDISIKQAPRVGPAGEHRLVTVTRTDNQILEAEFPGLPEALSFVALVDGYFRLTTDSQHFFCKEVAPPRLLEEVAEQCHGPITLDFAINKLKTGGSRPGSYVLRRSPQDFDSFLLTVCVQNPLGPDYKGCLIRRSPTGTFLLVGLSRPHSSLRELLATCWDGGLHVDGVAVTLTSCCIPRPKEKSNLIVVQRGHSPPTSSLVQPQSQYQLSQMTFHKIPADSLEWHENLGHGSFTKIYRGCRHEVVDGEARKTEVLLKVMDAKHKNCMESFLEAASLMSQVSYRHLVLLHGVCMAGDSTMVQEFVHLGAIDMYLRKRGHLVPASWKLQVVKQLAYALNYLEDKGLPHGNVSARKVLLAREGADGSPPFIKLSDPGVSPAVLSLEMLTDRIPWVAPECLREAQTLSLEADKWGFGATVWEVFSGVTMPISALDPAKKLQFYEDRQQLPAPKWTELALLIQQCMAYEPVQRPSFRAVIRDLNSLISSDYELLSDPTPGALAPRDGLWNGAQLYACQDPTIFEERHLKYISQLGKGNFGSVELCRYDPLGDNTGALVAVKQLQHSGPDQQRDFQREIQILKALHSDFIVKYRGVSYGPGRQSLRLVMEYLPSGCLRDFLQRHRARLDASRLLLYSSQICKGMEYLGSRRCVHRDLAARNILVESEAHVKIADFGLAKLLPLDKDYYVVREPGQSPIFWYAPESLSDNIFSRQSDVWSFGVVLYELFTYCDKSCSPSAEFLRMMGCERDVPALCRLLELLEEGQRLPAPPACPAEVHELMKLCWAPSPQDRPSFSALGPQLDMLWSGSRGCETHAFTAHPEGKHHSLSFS

[8] = Cytotoxicity against resting mouse T cells assessed as reduction in cell viability at 10 uM measured after 72 hrs by MTS assay; type: cell-based
[9] = target: T2, Tyrosine-protein kinase JAK2; experiment: Inhibition of recombinant human C-terminal His6-tagged JAK2 (808 to end residues) expressed in baculovirus infected Sf21 insect cells using Biotin-TYR1 (Biotin-(Ahx)-GAEEEIYAAFFA-COOH as substrate
Homo sapiens [10] = species: Homo sapiens; experiment: Selectivity ratio of IC50 for inhibition of recombinant human C-terminal His6-tagged JAK2 (808 to end residues) expressed in baculovirus infected Sf21 insect cells to IC50 for inhibition of recombinant human GST-tagged JAK3 catalytic domain (811 to 1103 residues) expressed in Sf9 insect cells
Homo sapiens [11] = species: Homo sapiens; experiment: Selectivity ratio of IC50 for inhibition of recombinant human GST-tagged JAK1 catalytic domain (845 to 1142 residues) expressed in Sf9 insect cells to IC50 for inhibition of recombinant human GST-tagged JAK3 catalytic domain (811 to 1103 residues) expressed in Sf9 insect cells

T2 sequence (O60674 whole entry): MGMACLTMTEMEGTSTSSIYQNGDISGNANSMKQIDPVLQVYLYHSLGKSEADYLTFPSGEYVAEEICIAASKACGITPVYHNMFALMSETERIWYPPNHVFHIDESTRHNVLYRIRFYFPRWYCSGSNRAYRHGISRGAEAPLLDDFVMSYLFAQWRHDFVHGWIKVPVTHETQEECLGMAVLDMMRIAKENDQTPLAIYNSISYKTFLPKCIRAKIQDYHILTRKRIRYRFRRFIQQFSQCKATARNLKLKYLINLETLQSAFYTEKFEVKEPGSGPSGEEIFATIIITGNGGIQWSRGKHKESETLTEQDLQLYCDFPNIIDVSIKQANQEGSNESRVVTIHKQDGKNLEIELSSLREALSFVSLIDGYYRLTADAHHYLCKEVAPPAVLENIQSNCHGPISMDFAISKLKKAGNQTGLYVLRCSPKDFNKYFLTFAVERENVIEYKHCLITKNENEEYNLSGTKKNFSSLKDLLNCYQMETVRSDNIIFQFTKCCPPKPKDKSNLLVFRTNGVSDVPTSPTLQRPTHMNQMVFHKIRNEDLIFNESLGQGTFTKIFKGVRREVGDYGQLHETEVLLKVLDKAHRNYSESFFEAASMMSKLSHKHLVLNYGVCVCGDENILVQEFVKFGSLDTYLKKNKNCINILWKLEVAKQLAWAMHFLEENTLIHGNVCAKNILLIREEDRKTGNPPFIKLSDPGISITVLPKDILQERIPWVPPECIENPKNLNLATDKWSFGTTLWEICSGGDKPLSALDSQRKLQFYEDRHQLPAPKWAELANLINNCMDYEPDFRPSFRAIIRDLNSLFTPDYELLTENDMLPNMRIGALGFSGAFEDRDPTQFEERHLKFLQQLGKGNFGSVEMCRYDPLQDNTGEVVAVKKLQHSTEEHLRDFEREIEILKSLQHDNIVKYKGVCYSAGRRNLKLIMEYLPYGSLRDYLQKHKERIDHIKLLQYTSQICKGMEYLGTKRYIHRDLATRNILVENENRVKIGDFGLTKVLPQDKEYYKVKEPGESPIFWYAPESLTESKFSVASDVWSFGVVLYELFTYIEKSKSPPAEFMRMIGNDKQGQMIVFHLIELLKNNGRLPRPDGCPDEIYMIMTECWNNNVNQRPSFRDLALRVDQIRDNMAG
Chain of Tyrosine-protein kinase JAK1 (P23458 whole entry, the tested form may be a part): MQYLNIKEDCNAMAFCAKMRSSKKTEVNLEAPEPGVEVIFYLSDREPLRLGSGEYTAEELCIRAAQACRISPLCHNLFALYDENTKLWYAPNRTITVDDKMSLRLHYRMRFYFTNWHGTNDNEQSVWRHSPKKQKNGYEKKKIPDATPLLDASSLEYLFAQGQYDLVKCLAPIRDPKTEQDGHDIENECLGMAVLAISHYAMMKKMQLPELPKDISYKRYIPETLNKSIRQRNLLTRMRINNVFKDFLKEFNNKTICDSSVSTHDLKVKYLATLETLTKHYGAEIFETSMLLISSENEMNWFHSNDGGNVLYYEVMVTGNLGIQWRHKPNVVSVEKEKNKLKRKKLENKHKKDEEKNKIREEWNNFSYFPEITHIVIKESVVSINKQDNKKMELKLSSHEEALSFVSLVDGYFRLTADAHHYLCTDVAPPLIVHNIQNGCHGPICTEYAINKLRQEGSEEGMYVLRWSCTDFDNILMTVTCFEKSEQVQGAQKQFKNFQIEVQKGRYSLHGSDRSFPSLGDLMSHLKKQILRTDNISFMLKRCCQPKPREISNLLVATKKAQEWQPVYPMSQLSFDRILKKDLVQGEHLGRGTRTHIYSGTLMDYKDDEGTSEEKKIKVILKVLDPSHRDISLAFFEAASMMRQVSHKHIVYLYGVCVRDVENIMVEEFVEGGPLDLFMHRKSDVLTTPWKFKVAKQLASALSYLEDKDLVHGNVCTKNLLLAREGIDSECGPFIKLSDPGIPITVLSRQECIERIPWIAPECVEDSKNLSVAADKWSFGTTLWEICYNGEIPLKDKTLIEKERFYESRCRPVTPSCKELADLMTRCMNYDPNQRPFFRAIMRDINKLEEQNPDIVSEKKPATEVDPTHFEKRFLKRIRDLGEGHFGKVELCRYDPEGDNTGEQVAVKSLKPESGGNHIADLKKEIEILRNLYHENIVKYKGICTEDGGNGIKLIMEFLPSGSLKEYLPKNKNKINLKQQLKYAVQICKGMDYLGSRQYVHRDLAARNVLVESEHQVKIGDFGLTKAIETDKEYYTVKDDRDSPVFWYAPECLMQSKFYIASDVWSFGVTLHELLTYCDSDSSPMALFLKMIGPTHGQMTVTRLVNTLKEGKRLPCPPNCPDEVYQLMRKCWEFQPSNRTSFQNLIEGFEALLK
Chain of Non-receptor tyrosine-protein kinase TYK2 (P29597 whole entry, the tested form may be a part): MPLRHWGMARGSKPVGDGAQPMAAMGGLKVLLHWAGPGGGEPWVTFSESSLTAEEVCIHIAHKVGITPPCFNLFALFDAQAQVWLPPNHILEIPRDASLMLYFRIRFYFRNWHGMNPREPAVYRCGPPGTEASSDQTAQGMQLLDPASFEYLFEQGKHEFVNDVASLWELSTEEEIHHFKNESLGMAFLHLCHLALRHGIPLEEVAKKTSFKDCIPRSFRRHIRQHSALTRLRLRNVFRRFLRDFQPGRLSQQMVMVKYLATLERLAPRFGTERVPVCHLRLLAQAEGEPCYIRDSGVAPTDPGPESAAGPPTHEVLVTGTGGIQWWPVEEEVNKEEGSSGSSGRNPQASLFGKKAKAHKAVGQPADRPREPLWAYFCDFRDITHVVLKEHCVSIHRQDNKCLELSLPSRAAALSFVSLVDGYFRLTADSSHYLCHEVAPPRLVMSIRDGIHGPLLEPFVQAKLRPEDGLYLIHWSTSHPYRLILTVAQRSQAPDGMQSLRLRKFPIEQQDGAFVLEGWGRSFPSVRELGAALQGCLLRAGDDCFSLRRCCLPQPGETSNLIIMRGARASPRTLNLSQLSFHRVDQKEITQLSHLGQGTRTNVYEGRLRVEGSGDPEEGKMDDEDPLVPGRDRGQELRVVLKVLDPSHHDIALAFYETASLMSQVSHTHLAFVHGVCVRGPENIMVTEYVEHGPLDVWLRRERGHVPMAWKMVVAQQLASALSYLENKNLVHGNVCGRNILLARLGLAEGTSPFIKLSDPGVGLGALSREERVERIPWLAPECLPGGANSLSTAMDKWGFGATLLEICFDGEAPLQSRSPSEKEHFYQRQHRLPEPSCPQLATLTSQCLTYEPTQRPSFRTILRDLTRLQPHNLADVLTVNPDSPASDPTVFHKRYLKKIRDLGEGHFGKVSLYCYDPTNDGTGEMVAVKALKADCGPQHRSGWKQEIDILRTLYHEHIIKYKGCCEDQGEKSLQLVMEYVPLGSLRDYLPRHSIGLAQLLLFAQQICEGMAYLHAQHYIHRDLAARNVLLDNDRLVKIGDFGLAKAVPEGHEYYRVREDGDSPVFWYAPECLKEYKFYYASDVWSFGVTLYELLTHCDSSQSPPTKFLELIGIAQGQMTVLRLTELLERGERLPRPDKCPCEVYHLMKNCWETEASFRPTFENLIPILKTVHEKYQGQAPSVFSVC

| IC50 [1] [nM] | inhibition [2] | IC50 [3] [nM] | inhibition [5] | IC50 [6] [nM] | IC50 [7] [nM] | IC50 [9] [nM] | SMILES | Activity (RAW264.7) | Activity [4] | Activity [8] | Ratio IC50 (Homo sapiens [10]) | Ratio IC50 (Homo sapiens [11]) |
| --- | --- | --- | --- | --- | --- | --- | --- | --- | --- | --- | --- | --- |
| > 3000 | Active | 1560 | Active | 1080 | 9.1 |  | C=CC(=O)Nc1ccc(-c2ccnc(Nc3cnn(CCOC)c3)n2)cc1 | Non-Toxic | Non-Toxic | Non-Toxic |  |  |
|  |  |  |  |  |  | 120 | CC[C@H]1CN(C(=O)NCC(F)(F)F)C[C@H]1C1C=NC2=CN=C3NC=CC3N21 (some centres not stated) |  |  |  | 19 | 49 |
